Assay results: patent US20040018561A1, “Peptide compounds and their use as protease substrates” (priority 2002, published 2004)
*1 amine or outer side, *2 acyl side, *3 side chain or, on linkers, in order; H or OH if unused. Where a SMILES comes first, the peptide text is derived from it. [ ]: non-standard residue; d: D form. The star is where a group is joined. Dnp = O=[N+]([O-])c1ccc(*)c([N+](=O)[O-])c1; X2 = O=C([C@H](CCCCOCc1ccccc1)N[*:1])[*:2]; X1 = O=C([C@H](CCCCOc1ccccc1)N[*:1])[*:2]; Mca = COc1ccc2c(CC(=O)*)cc(=O)oc2c1; Dap = NC[C@H](N)C(=O)O

Tests used:
MMP-1 = target: T1, MMP-1 (Homo sapiens, UniProt P03956); assay: Km and kcat/Km of substrates with MMP-1; format: biochemical; settings: summary of Table 1
T1 sequence (P03956 100-469): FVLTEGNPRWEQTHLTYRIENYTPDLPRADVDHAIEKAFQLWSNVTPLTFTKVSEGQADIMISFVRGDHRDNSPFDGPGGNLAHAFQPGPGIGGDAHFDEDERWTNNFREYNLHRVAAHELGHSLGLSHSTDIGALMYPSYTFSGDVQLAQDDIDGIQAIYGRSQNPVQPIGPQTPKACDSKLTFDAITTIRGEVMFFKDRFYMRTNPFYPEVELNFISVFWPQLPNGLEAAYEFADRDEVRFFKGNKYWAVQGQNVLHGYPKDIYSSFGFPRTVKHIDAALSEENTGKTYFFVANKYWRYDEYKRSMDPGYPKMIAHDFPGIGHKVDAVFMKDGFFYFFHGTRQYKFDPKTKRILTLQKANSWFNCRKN

MMP-7 = target: T2, MMP-7 (Homo sapiens, UniProt P09237); assay: Km and kcat/Km of substrates with MMP-7; format: biochemical; settings: summary of Table 1
T2 sequence (P09237 95-267): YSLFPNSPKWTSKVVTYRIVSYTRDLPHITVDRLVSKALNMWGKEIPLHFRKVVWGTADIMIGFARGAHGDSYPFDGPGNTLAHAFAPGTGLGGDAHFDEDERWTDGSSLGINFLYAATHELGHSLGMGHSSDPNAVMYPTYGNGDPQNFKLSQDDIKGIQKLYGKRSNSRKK

[1] = octanol/water; Tao et al., J. Mol. Model. 1999; cited from earlier work

Row | SMILES | kcat with MMP-1 (in words) (MMP-1) | kcat with MMP-7 (in words) (MMP-7) | Log D contribution in a peptide [1]
1 | COc1ccc2c(CC(=O)N[C@@H](CCCNC(=N)N)C(=O)N3CCC[C@H]3C(=O)N[C@@H](CC(C)C)C(=O)NCC(=O)N[C@@H](CCCCOCc3ccccc3)C(=O)N[C@@H](CNc3ccc([N+](=O)[O-])cc3[N+](=O)[O-])C(=O)N[C@@H](C)C(=O)N[C@@H](CCCNC(=N)N)C(=O)N[C@@H](CCC(=O)O)C(=O)N[C@@H](CCCNC(=N)N)C(N)=O)cc(=O)oc2c1 [Compound 20, N-2-[(7-methoxy-2-oxo-2H-chromen-4-yl)acetyl]-L-arginyl-L-prolyl-L-leucylglycyl-6-(benzyloxy)-L-norleucyl-3-[(2,4-dinitrophenyl)amino]-L-alanyl-L-alanyl-L-arginyl-L-alpha-glutamyl-L-argininamide] (Mca-RPLG[X2][Dap](Dnp)ARER-NH2) | low kcat or kcat of zero | low kcat or kcat of zero | 
2 | COc1ccc2c(CC(=O)N[C@H](CCCNC(=N)N)C(=O)N3CCC[C@H]3C(=O)N[C@@H](CC(C)C)C(=O)NCC(=O)N[C@@H](CCCCOCc3ccccc3)C(=O)N[C@@H](CNc3ccc([N+](=O)[O-])cc3[N+](=O)[O-])C(=O)N[C@@H](C)C(=O)N[C@H](CCCNC(=N)N)C(=O)N[C@H](CCC(=O)O)C(=O)N[C@H](CCCNC(=N)N)C(N)=O)cc(=O)oc2c1 [Compound 21, N-2-[(7-methoxy-2-oxo-2H-chromen-4-yl)acetyl]-D-arginyl-L-prolyl-L-leucylglycyl-6-(benzyloxy)-L-norleucyl-3-[(2,4-dinitrophenyl)amino]-L-alanyl-L-alanyl-D-arginyl-D-alpha-glutamyl-D-argininamide] (Mca-[dR]PLG[X2][Dap](Dnp)A[dR][dE][dR]-NH2) | low kcat or kcat of zero | low kcat or kcat of zero | 
3 | COc1ccc2c(CC(=O)N[C@H](CCCNC(=N)N)C(=O)N3CCC[C@H]3C(=O)N[C@@H](CC(C)C)C(=O)NCC(=O)N[C@@H](CCCCOc3ccccc3)C(=O)N[C@@H](CNc3ccc([N+](=O)[O-])cc3[N+](=O)[O-])C(=O)N[C@@H](C)C(=O)N[C@H](CCCNC(=N)N)C(=O)N[C@H](CCC(=O)O)C(=O)N[C@H](CCCNC(=N)N)C(N)=O)cc(=O)oc2c1 [Compound 25, N-2-[(7-methoxy-2-oxo-2H-chromen-4-yl)acetyl]-D-arginyl-L-prolyl-L-leucylglycyl-6-phenoxy-L-norleucyl-3-[(2,4-dinitrophenyl)amino]-L-alanyl-L-alanyl-D-arginyl-D-alpha-glutamyl-D-argininamide] (Mca-[dR]PLG[X1][Dap](Dnp)A[dR][dE][dR]-NH2) | low kcat or kcat of zero | low kcat or kcat of zero | 
4 | C[C@H](N)C(=O)O [alanine] |  |  | −0.27
5 | N=C(N)NCCC[C@H](N)C(=O)O [arginine] |  |  | −1.65
6 | NC(=O)C[C@H](N)C(=O)O [asparagine] |  |  | −0.98
7 | N[C@@H](CC(=O)O)C(=O)O [aspartic acid] |  |  | −2.06
8 | N[C@@H](CCC(=O)O)C(=O)O [glutamic acid] |  |  | −2.19
9 | NCC(=O)O [glycine] |  |  | −0.22
10 | N[C@@H](Cc1c[nH]cn1)C(=O)O [histidine] |  |  | −0.44
11 | NCCCC[C@H](N)C(=O)O [lysine] |  |  | −2.27
12 | C[C@@H](O)[C@H](N)C(=O)O [threonine] |  |  | −0.26
